Each compound was assayed against TAF1-BD2 (Homo sapiens, UniProt P21675) (assay: TAF1-BD2 TR-FRET binding assay). Details: Assay: TAF-1; biotinylated probe compound 1000, TR-FRET.
Procedure: Specifically, in a 384 well ProxiPlate TAF1-BD2 (6 nM final) was combined with biotin-ligand (50 nM final) in 50 mM HEPES (pH 7.5), 50 mM NaCl, 1 mM TCEP, 0.01% (w/v) BSA, and 0.008% (w/v) Brij-35 either in the presence of DMSO (final 0.2% DMSO) or compound dilution series in DMSO. After 10 minutes incubation at room temperature, a mixture Eu-W1024 Anti-6×His antibody (Perkin Elmer AD0110) and SureLight™ Allophycocyanin-Streptavidin (APC-SA, Perkin Elmer CR130-100) were added to a final concentrations of 0.2 nMolar antibody and 25 nMolar APC-SA, respectively. After twenty minutes of equilibration, the plates were read on an Envision instrument and IC50s calculated using a four parameter non-linear curve fit.
`Cn1cc(-c2ccc(C(=O)N3CCOCC3)cc2)c2cc[nH]c2c1=O` [Example 30, 6-methyl-4-[4-(morpholine-4-carbonyl)phenyl]-1H-pyrrolo[2,3-c]pyridin-7-one] showed an IC50 of 350 nM.
With `Cn1cc(-c2ccc(C(=O)NCc3ccccc3)cc2)c2cc[nH]c2c1=O` [Example 37, N-benzyl-4-(6-methyl-7-oxo-1H-pyrrolo[2,3-c]pyridin-4-yl)benzamide] the IC50 was 63 nM.
Work on `CN1CCC(c2cccc(-c3cn(C)c(=O)c4[nH]ccc34)c2)CC1` [Example 43, 6-methyl-4-[3-(1-methyl-4-piperidyl)phenyl]-1H-pyrrolo[2,3-c]pyridin-7-one] yielded an IC50 of 680 nM.
`CN1CCC(Cc2cccc(-c3cn(C)c(=O)c4[nH]ccc34)c2)CC1` [Example 46, 6-methyl-4-[3-[(1-methyl-4-piperidyl)methyl]phenyl]-1H-pyrrolo[2,3-c]pyridin-7-one] showed an IC50 of 440 nM.
